Experimental data: US10500261B2 (priority 2014, dated 2019)
“Also recorded” adds a separate entry of the source.

Experiments:
[1] = test system: HS23/36 CPS conjugate antisera; type: binding, rabbit
[2] = test system: HS4 CPS conjugate antisera; type: binding, rabbit
[3] = test system: HS1 CPS conjugate antisera; type: binding, mouse
[4] = test system: HS3 CPS conjugate antisera; type: binding, mouse

With `COc1ccc(O[C@H]2O[C@H](CO)[C@H](O)[C@H](O)[C@H]2O)cc1` [α-D-Gal-(1-OMP, 4-methoxyphenyl-α-D-galactopyranoside, reference compound] the “recognition by HS23/36 CPS-CRM197 conjugate antiserum” value [1] was “No reaction was observed”.
For `COc1ccc(O[C@H]2O[C@H](COP(N)(=O)OC)[C@H](O)[C@H](O)[C@H]2O)cc1` (stereo partly drawn) [MeOPN→6-α-D-Galp-(1→OMP, 4-Methoxyphenyl 6-O-methyl-phosphoramidate-α-D-galactopyranoside], the “recognition by HS23/36 CPS-CRM197 conjugate antiserum” value [1] was “recognized; also recorded: strongly recognized; also recorded: detected”, the “recognition by HS4 CPS-CRM197 conjugate antiserum” value [2] was “elicited a response equivalent to anti-HS23/36 CRM197 conjugate; also recorded: strongly recognized” and the “recognition by HS1 CPS-CRM197 conjugate antiserum” value [3] was “reacted to MeOPN-6-Gal, although to a somewhat lesser extent; also recorded: weaker intensity”. The “recognition by HS3 CPS-CRM197 conjugate antiserum” value [4] was “did not react”.
